# Reference: publication PMC6410416 (Marine Drugs, 2019)
# Target: T1, Ps-Mn-SOD (Paelopatides sp. YL-2018, UniProt A0A411L1L4)
# T1 construct: ORF 255 residues, signal peptide deleted; 6xHis tag (pCold II), E. coli pG-KJE8/BL21, Ni-NTA; about 30 kDa subunit, dimer about 60 kDa; C-terminal peptide (from primer) PSKHEEL
# T1 sequence (A0A411L1L4 22-255): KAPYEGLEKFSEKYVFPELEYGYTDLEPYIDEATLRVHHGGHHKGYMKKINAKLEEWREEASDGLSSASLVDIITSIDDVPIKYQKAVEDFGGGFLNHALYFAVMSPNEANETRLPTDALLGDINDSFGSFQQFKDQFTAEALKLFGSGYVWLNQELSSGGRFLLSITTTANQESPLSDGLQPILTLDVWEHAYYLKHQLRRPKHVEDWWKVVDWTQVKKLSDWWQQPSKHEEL
# Experiment: SOD assay kit, inhibition of chromogen production at […] nm
# Type: biochemical
# Details: superoxide generated in situ; turnover only
compound,measurement,value
[O]O [superoxide],"SOD assay kit, inhibition of chromogen production at 550 nm",SOD activity was determined via spectrophotometric method using the SOD assay kit
